Data reported in ChEMBL document CHEMBL5727836, “Treatment of infectious diseases with glucose uptake inhibitors” (2020).

Assay: ATP Assay: HT1080 cells (as well as other cell types) were plated to confluency in 96-well plates. Cells were exposed to the combination of 10 μM Oligomycin (to block mitochondrial-derived ATP), and the glucose uptake inhibitor compounds for one-hour, after which glycolytically-dervied ATP was measured with the Cell Titer-Glo assay kit (Promega). Dose-response curves of the glucose uptake inhibitor compounds were used to determine the IC50 for GLUT activity.
Details: HT-1080, 1 h

| SMILES | IC50 |
| --- | --- |
| CC(=O)N1CCc2nc(-c3cccc(OCC(=O)NC4CCCC4)c3)nc(Nc3ccc(-c4cn[nH]c4)cc3)c2C1 | in the range around 55 nM |
| CC(C)CNC(=O)COc1cccc(-c2nc3c(c(Nc4ccc(-c5cn[nH]c5)cc4)n2)COC3)c1 | in the range around 55 nM |
| O=C(COc1cccc(-c2nc(Nc3ccc(-c4cn[nH]c4)cc3)c3ccncc3n2)c1)NC1CCCC1 | in the range around 55 nM |
| CC(C)(C)NC(=O)COc1cccc(-c2nc(Nc3ccc(-c4cn[nH]c4)cc3)c3sccc3n2)c1 | in the range around 175 nM |
| CC(C)NC(=O)COc1cccc(-c2nc(Nc3ccc(-c4cn[nH]c4)cc3)c3cnccc3n2)c1 | in the range around 55 nM |
| CC(C)NC(=O)COc1cccc(-c2nc(Nc3ccc4[nH]ncc4c3)c3sccc3n2)c1 | in the range around 55 nM |
| CC(=O)N1Cc2nc(-c3cccc(OCC(=O)NC(C)(C)C)c3)nc(Nc3ccc(-c4cn[nH]c4)cc3)c2C1 | in the range around 55 nM |
| O=C(COc1cccc(-c2nc(Nc3ccc(-c4cn[nH]c4)cc3)c3occc3n2)c1)NC1CCC1 | in the range around 375 nM |
| CC(=O)N1CCc2nc(-c3cccc(OCC(=O)NC(C)(C)C)c3)nc(Nc3ccc(-c4cn[nH]c4)cc3)c2C1 | in the range around 55 nM |
| CCC(C)(C)NC(=O)COc1cccc(-c2nc(Nc3ccc(-c4cn[nH]c4)cc3)c3sccc3n2)c1 | in the range around 175 nM |
| CCC(CC)NC(=O)COc1cccc(-c2nc3c(c(Nc4ccc(-c5cn[nH]c5)cc4)n2)CN(C(C)=O)C3)c1 | in the range around 55 nM |
| CC(C)NC(=O)COc1cccc(-c2nc(Nc3ccc(-c4cn[nH]c4)cc3)c3ccncc3n2)c1 | in the range around 55 nM |
| CC(C)(C)NC(=O)COc1cccc(-c2nc(Nc3ccc(-c4cn[nH]c4)cc3)c3cnccc3n2)c1 | in the range around 55 nM |
| CC(C)CNC(=O)COc1cccc(-c2nc(Nc3ccc(-c4cn[nH]c4)cc3)c3cnn(C)c3n2)c1 | in the range around 175 nM |
| Cn1ncc2c(Nc3ccc(-c4cn[nH]c4)cc3)nc(-c3cccc(OCC(=O)NC4CCC4)c3)nc21 | in the range around 375 nM |
| O=C(COc1cccc(-c2nc3c(c(Nc4ccc(-c5cn[nH]c5)cc4)n2)COCC3)c1)NC1CCCC1 | in the range around 55 nM |
| O=C(COc1cccc(-c2nc3c(c(Nc4ccc(-c5cn[nH]c5)cc4)n2)COCC3)c1)NC1CCC1 | in the range around 55 nM |
| CC(C)CNC(=O)COc1cccc(-c2nc3c(c(Nc4ccc(-c5cn[nH]c5)cc4)n2)COCC3)c1 | in the range around 55 nM |
| CCC(CC)NC(=O)COc1cccc(-c2nc3c(c(Nc4ccc(-c5cn[nH]c5)cc4)n2)CN(C(C)=O)CC3)c1 | in the range around 55 nM |
| CC(C)(C)CNC(=O)COc1cccc(-c2nc3c(c(Nc4ccc(-c5cn[nH]c5)cc4)n2)COC3)c1 | in the range around 55 nM |
| CC(C)(C)NC(=O)COc1cccc(-c2nc3c(c(Nc4ccc(-c5cn[nH]c5)cc4)n2)COC3)c1 | in the range around 55 nM |
| CC(C)(C)CNC(=O)COc1cccc(-c2nc3c(c(Nc4ccc(-c5cn[nH]c5)cc4)n2)COCC3)c1 | in the range around 55 nM |
| O=C(COc1cccc(-c2nc3c(c(Nc4ccc(-c5cn[nH]c5)cc4)n2)CSC3)c1)NC1CCC1 | in the range around 175 nM |
| CCC(C)NC(=O)COc1cccc(-c2nc3c(c(Nc4ccc(-c5cn[nH]c5)cc4)n2)COCC3)c1 (stereo not drawn) | in the range around 55 nM |

| SMILES | IC50 |
| --- | --- |
| CC(C)NC(=O)COc1cccc(-c2nc(Nc3ccc(-c4cn[nH]c4)cc3)c3cnn(C)c3n2)c1 | in the range around 375 nM |
| O=C(COc1cccc(-c2nc3c(c(Nc4ccc(-c5cn[nH]c5)cc4)n2)CSC3)c1)NC1CCCC1 | in the range around 175 nM |
| CC(C)NC(=O)COc1cccc(-c2nc3c(c(Nc4ccc(-c5cn[nH]c5)cc4)n2)COCC3)c1 | in the range around 55 nM |
| CC(C)CNC(=O)COc1cccc(-c2nc(Nc3ccc(-c4cn[nH]c4)cc3)c3ncccc3n2)c1 | in the range around 175 nM |
| O=C(COc1cccc(-c2nc3c(c(Nc4ccc(-c5cn[nH]c5)cc4)n2)COC3)c1)NC1CC(F)(F)C1 | in the range around 175 nM |
| O=C(CN1CCOCC1)Nc1cccc(-c2nc(Nc3ccc(-c4cn[nH]c4)cc3)c3ccsc3n2)c1 | in the range around 175 nM |
| CC(C)CNC(=O)COc1cccc(-c2nc(Nc3ccc(-c4cn[nH]c4)cc3)c3ncsc3n2)c1 | in the range around 375 nM |
| CC(C)NC(=O)COc1cccc(-c2nc3c(c(Nc4ccc(-c5cn[nH]c5)cc4)n2)CN(C(=O)C(C)C)CC3)c1 | in the range around 55 nM |
| CCC(C)NC(=O)COc1cccc(-c2nc3c(c(Nc4ccc(-c5cn[nH]c5)cc4)n2)COC3)c1 (stereo not drawn) | in the range around 55 nM |
| O=C(COc1cccc(-c2nc(Nc3ccc(-c4cn[nH]c4)cc3)c3ncsc3n2)c1)NC1CCC1 | in the range around 375 nM |
| CC(C)NC(=O)COc1cccc(-c2nc3c(c(Nc4ccc(-c5cn[nH]c5)cc4)n2)CSC3)c1 | in the range around 375 nM |
| CC(=O)N1CCc2nc(-c3cccc(OCC(=O)NCC(C)C)c3)nc(Nc3ccc(-c4cn[nH]c4)cc3)c2C1 | in the range around 55 nM |
| CC(=O)N1CCc2nc(-c3cccc(OCC(=O)NC(C)C)c3)nc(Nc3ccc(-c4cn[nH]c4)cc3)c2C1 | in the range around 175 nM |
| O=C(COc1cccc(-c2nc(Nc3ccc(-c4cn[nH]c4)cc3)c3sccc3n2)c1)NC1CCCC1 | in the range around 55 nM |
| O=C(COc1cccc(-c2nc(Nc3ccc(-c4cn[nH]c4)cc3)c3ccncc3n2)c1)NC1CCC1 | in the range around 55 nM |
| O=C(COc1cccc(-c2nc(Nc3ccc(-c4cn[nH]c4)cc3)c3sccc3n2)c1)NC1CC1 | 750 nM |
| O=C(COc1cccc(-c2nc(Nc3ccc(-c4cn[nH]c4)cc3)c3occc3n2)c1)NC1CCCC1 | in the range around 375 nM |
| CCC(CC)NC(=O)COc1cccc(-c2nc3c(c(Nc4ccc(-c5cn[nH]c5)cc4)n2)COC3)c1 | in the range around 55 nM |
| Cn1cnc2c(Nc3ccc(-c4cn[nH]c4)cc3)nc(-c3cccc(OCC(=O)NC4CCC4)c3)nc21 | in the range around 375 nM |
| O=C(COc1cccc(-c2nc(Nc3ccc(-c4cn[nH]c4)cc3)c3sccc3n2)c1)NC1CCC1 | in the range around 175 nM |
| CC(C)NC(=O)COc1cccc(-c2nc(Nc3ccc(-c4cn[nH]c4)cc3)c3ncsc3n2)c1 | in the range around 375 nM |
| O=C(COc1cccc(-c2nc(Nc3ccc(-c4cn[nH]c4)cc3)c3ncsc3n2)c1)NC1CCCC1 | in the range around 175 nM |
| CC(=O)N1Cc2nc(-c3cccc(OCC(=O)NC(C)C)c3)nc(Nc3ccc(-c4cn[nH]c4)cc3)c2C1 | in the range around 175 nM |
| Cn1ncc2c(Nc3ccc(-c4cn[nH]c4)cc3)nc(-c3cccc(OCC(=O)NC4CCCC4)c3)nc21 | in the range around 175 nM |
